# Measured values as given in patent US9345691B2, “Beta-lactam compounds for enhancing T cell-mediated immune responses” (STEM CELL MEDICINE LTD., priority 2011, dated 2016).
# Key:
# [1] = system: CD4+ human T cells; assay: Human Autoimmune and Inflammatory Response Gene Array, anti-CD3 stimulated T cells; type: cell-based; details: 120 min anti-CD3; for % increase by Amp.: ampicillin 50 μg/ml
# Protocol: T cells were purified from the peripheral bloods of healthy human donors (Blood Bank, Sheba Medical center). The whole blood was incubated (20 min, 22° C.) with RosetteSep™ human T cell enrichment mixture (StemCell Technologies, Vancouver, Canada). The remaining unsedimented cells were then loaded onto lymphocyte separation medium (ICN Biomedicals, Irvine, Calif.), isolated by density centrifugation, and washed with PBS. […] In a second round of purification, CD3^+ T cells were labeled for selection with a magnetically coupled mAb against CD4 (Miltenyi Biotec, Auburn, Calif.).
# Human CD4 T cells were isolated as described, and incubated in 24 well plates (Nunc), 4×10^6 cells/ml with plate bound anti-human CD3 (OKT3) at 2 μg/ml. The stimulation was performed in RPMI medium supplemented with 0.1% BSA. […] RNA was extracted from samples and used to prepare probes for gene array in accord with the manufacturer's instructions (SuperArray Bioscience, Frederick, Md.). Adequate labeling of the probes was tested before hybridization. Three healthy donors were tested in stimulation with cefuroxime. The membranes were analyzed online with the Image Data Acquisition and Expression Analysis (SuperArray Bioscience).
# The Human Autoimmune and Inflammatory Response Gene Array (SuperArray Bioscience corporation, Frederick, Md., USA) was used for analysis of gene expression by the T cells. This array contains 367 genes including cytokines, chemokines and their receptors, transcription factors and signaling proteins. […] Analysis of the results was performed using the GEArray analysis program (www.SuperArray.com). […] To verify the results detected by the gene array study, a panel of six genes was designed and tested by real-time PCR: CCR4, ACVR2, JAK1, STAT4, TLR2 and NFKBIE. The cDNA that was used was prepared from the same RNA used for the gene array experiment.
# [2] = system: encephalitogenic BP10 T-cell line; assay: Adoptive EAE by BP10 line stimulated in vitro with test substance; type: in vivo, rat; details: BP10 line stimulated 3 days with MBP in presence of 50 μg/ml; 10^7 cells IP per rat
# Description: The ability of a compound to enhance T cell activity may be determined, for example, using an in vivo assay testing the effect of a given compound on the severity of adoptive (passive) EAE, namely, EAE which is induced by the injection of activated encephalitogenic T cell line to the model animal. In order to test a compound, the encephalitogenic T cells are activated in the presence of the compound prior to injection. An exemplary procedure is described in the Examples section hereinbelow.
# Antigen-specific T-cell lines were established from lymph node cells that had been stimulated with myelin basic protein (MBP; 10 μg/ml) for 3 days in stimulation medium as described below. Following stimulation, the T-cell blasts were isolated on Lympho-prep (Nycomed Pharma, Oslo, Norway) and seeded in propagation medium. Propagation medium was identical to stimulation medium without autologous serum, but supplemented with fetal calf serum 10% and T-cell growth factors from the supernatant of Con A stimulated spleen cells 10% (Mor et al. (1990) J Clin Invest, 85, 1594-1598). Animals were injected intra-peritoneally with 10^7 MBP-stimulated T cells, following 6-8 cycles of in vitro stimulations. It is known that MBP-reactive lines undergo a reduction in pathogenicity after 6 or more in vitro stimulations. In some experiments the BP10 line was stimulated with phorbol myristate acetate (PMA; 50 ng/ml) and ionomycin (500 ng/ml) for 3 days in stimulation medium, without antigen-presenting cells.
# Active EAE was induced by subcutaneous injection of 25 μg guinea-pig MBP (GpMBP) in complete Freund's adjuvant (CFA). CFA was prepared by adding 4 mg/ml Mycobacterium tuberculosis H37Ra (Difco, Mich.) to incomplete Freund's adjuvant (IFA). Adoptive EAE was transferred by intra-peritoneal injection of guinea-pig MBP-activated cells of the BP10 line as described in Mor et al. (1993) J Clin Invest, 92, 2199-2206. […] Clinical scoring was: +1, paralysis of tail; +1.5, paresis of posterior paws and ataxia; +2, paraplegia; +3, paralysis extending to thoracic spine; +4, a moribund state.
# Treatment with cefuroxime in vivo could affect many different host agents involved in EAE or AA as well as influencing the rats' bacterial flora. To test whether the antibiotic might directly modify the behavior of effector T cells, an encephalitogenic T-cell line was stimulated in the presence or absence of cefuroxime in vitro. The weakly encephalitogenic BP10 line was used, and was stimulated for 3 days with MBP in the presence or absence of cefuroxime (50 μg/ml). The activated T cells were then washed to remove the antibiotic, the T cells were injected intra-peritoneally into naïve recipient rats (10^7 per rat), and EAE was scored. The BP10 line at later stimulations was used, when its pathogenic potential is reduced, allowing to detect both suppression and enhancement of disease. […] To rule out antigen presenting cells (APC) as the target of the beta-lactam antibiotic, the encephalitogenic BP10 line was stimulated without APC using PMA (50 ng/ml) and Ionomycin (500 ng/ml) in the presence or absence of cefuroxime.
smiles,measurement,setting,value
CC1(C)S[C@@H]2[C@H](NC(=O)[C@H](N)c3ccccc3)C(=O)N2[C@H]1C(=O)O [ampicillin],number of the 57 cefuroxime-down-regulated genes up-regulated,[1]; 50 μg/ml,56 genes
same,% increase by Amp.,[1]; gene ACTB,+196%
same,% increase by Amp.,"[1]; gene ACVR1, A low expression",+53%
same,% increase by Amp.,"[1]; gene ACVR2, A low expression",+85%
same,% increase by Amp.,[1]; gene CCL5,+25%
same,% increase by Amp.,[1]; gene CCL11,+107%
same,% increase by Amp.,[1]; gene CCR4,+31%
same,% increase by Amp.,[1]; gene CCR6,+83%
same,% increase by Amp.,[1]; gene CCR7,+43%
same,% increase by Amp.,[1]; gene CD28,+175%
same,% increase by Amp.,[1]; gene CD40LG,+67%
same,% increase by Amp.,[1]; gene CREBBP,+49%
same,% increase by Amp.,[1]; gene CXCL10,+25%
same,% increase by Amp.,[1]; gene EGR3,−25%
same,% increase by Amp.,[1]; gene GFI1,+10%
same,% increase by Amp.,"[1]; gene HRAS, A low expression",−12%
same,% increase by Amp.,"[1]; gene IL1B, A low expression",+64%
same,% increase by Amp.,[1]; gene IL2RB,+93%
same,% increase by Amp.,"[1]; gene IL2RG, A low expression",+78%
same,% increase by Amp.,[1]; gene IL9R,No change
same,% increase by Amp.,"[1]; gene IL16, A low expression",+14%
same,% increase by Amp.,[1]; gene IRAK1,+171%
same,% increase by Amp.,[1]; gene JAK1,+161%
same,% increase by Amp.,[1]; gene JUN,+65%
same,% increase by Amp.,[1]; gene LTA,+48.5%
same,% increase by Amp.,[1]; gene MAP2K4,+150%
same,% increase by Amp.,"[1]; gene MAP3K1, A low expression",+63%
same,% increase by Amp.,[1]; gene MAP3K2,+93%
same,% increase by Amp.,[1]; gene MAP3K7,+124%
same,% increase by Amp.,[1]; gene MAPK9,+46%
same,% increase by Amp.,[1]; gene NFKB1,+31%
same,% increase by Amp.,[1]; gene NFKB2,+195%
same,% increase by Amp.,[1]; gene NFKBIE,+132%
same,% increase by Amp.,[1]; gene NFKBIL1,+191%
same,% increase by Amp.,[1]; gene PAK1,+111%
same,% increase by Amp.,[1]; gene PIN1,+105%
same,% increase by Amp.,[1]; gene RANBP5,+108%
same,% increase by Amp.,[1]; gene REL,+132%
same,% increase by Amp.,[1]; gene RFX5,+137%
same,% increase by Amp.,[1]; gene RFXAP,+131%
same,% increase by Amp.,[1]; gene SDF2,+71%
same,% increase by Amp.,[1]; gene SELL,+124%
same,% increase by Amp.,[1]; gene SMAD4,+85%
same,% increase by Amp.,"[1]; gene SMAD7, A low expression",+34%
same,% increase by Amp.,[1]; gene SP3,+47%
same,% increase by Amp.,[1]; gene SRF,+58%
same,% increase by Amp.,[1]; gene STAT1,+85%
same,% increase by Amp.,[1]; gene STAT4,+11%
same,% increase by Amp.,[1]; gene STAT6,no change
same,% increase by Amp.,[1]; gene TGFBR3,+139%
same,% increase by Amp.,"[1]; gene TGIF, A low expression",+72%
same,% increase by Amp.,"[1]; gene TLR2, A low expression",+419%
same,% increase by Amp.,"[1]; gene TNFRSF11A, A low expression",+81%
same,% increase by Amp.,[1]; gene TNFα,+39%
same,% increase by Amp.,"[1]; gene TRAF5, A low expression",+47%
same,% increase by Amp.,"[1]; gene TRAF6, A low expression",+39%
same,% increase by Amp.,[1]; gene YY1,+152%
same,severity of adoptive EAE,[2],did not increase the severity of EAE
